The results in this text go back to US12473304B2, “Heterocyclic PAD4 inhibitors” (BRISTOL-MYERS SQUIBB COMPANY, priority 2020, dated 2025).

Sequence of human PAD4 (hPAD4) (Q9UM07 whole entry): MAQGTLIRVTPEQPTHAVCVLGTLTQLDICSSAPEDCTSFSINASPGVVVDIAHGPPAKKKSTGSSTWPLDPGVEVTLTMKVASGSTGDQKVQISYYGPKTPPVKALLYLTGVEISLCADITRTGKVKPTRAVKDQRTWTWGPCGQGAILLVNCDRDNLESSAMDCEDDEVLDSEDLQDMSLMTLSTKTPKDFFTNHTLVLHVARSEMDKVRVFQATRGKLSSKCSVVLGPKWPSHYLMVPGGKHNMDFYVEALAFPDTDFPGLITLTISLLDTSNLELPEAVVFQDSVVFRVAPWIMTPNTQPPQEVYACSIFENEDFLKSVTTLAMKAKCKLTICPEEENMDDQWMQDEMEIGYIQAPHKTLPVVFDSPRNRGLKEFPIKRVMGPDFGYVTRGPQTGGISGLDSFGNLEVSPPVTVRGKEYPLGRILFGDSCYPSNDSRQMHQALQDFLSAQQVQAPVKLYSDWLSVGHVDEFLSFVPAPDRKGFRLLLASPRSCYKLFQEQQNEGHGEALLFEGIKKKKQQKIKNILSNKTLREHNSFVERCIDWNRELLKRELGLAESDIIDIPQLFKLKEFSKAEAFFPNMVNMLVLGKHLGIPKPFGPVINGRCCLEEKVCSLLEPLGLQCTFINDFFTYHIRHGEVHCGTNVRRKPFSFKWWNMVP

The target in this assay is human PAD4 (hPAD4) (Homo sapiens (Human), UniProt Q9UM07). The assay can be described thus: RFMS Human PAD4 Functional Assay 1. As to conditions: RFMS assay 1; 5 nM hPAD4, 250 μM BAEE substrate, 50 μM calcium, 37° C. It counts as biochemical. The protocol: RFMS Human PAD4 Functional Assay 1:
Compounds were solubilized in 100% DMSO to achieve all) mM compound concentration. Compound stock solutions were stored at RT. A series of dilutions were prepared in DMSO and mixed 8 times with 20 μL mixing volume. Final top concentration of compound in the assay is 50 μM. Final assay conditions were as follows: • Reaction volume: 26 μl • Assay buffer: 25 mM hepes, pH 7.5, 5 mM NaCl, 1 mM DTT, 0.2 mg/ml BSA, 0.01% CHAPS, 50 μM Calcium, and 5 μM TPEN • Final concentrations: 5 nM hPAD4 enzyme, 250 μM BASE, and 0.5% DMSO • Total incubation time: 30 mins compound and enzyme preincubation at 37° C., 90 min enzyme/substrate reaction, 30 min reaction with phenyl glyoxal at 37° C. • Stop solution: 40 μl 5% TCA in ACN
0.13 μL of compound solution was added to 13 μL of 10 nM PAD4 in assay buffer. After 30 min 13 μl of 500 μM of BAEE was added in 25 mM hepes, pH 7.5, 5 mM NaCl, 1 mM DTT, 0.2 mg/ml BSA, 0.01% CHAPS, 50 μM Calcium, 5 μM TPEN was added and the reaction incubated for 90 min at 37° C. The enzymatic reaction was quenched by addition of 15 μl of 6.1N TCA, 100% Final Concentration is 20%, 35 μl of 8.5 mM phenyl glyoxal (final concentration 4 mM) is then added and the reaction is incubated for 30 min at 37° C.
After 30 minutes the plates are spun down to remove all precipitate. The enzyme reaction was quenched with an equal volume of methanol containing internal standard (modified citrulline). Samples were loaded onto the Rapid Fire RF300 system (Agilent) wherein they were first sipped for 1000 ms and then directly loaded to a C18 separations cartridge using a mixture of acetonitrile containing 0.01% formic acid for 3000 ms desalting. The flow rate of the mobile phase was 1.5 ml/min. Once the samples were eluted from the cartridge, a mobile phase of acetonitrile containing 0.01% formic acid was used to move the samples into the mass spectrometer for 4000 ms at a flow rate of 1.25 ml/min/Sciex API5500 triple quadrupole mass spectrometer (Applied Biosystems) equipped with ESI was used to analyze the peptidyl citrulline and internal standard ions.
MRM transition of product and internal standard were monitored at m/z 424.5 to 350.4 and m/z 293 to 247 respectively. The dwell time for each transition was set at 200 ms, and the ESI voltage was used at 5500 with a source temperature of 400° C. Extracted ion peaks for each transition were integrated using the Rapid Fire Integrator software. Peak area of analyte was normalized with internal standard.).
On to `Cc1c(-c2cc3ccc(OCC4CNC(=O)C4)nc3n2CC2CC2)nn2cc(C(=O)N3CC4CCC3[C@@H]4N)cc(F)c12` (mixture of isomers) [Example 275, 4-{[(2-{6-[(7R)-7-Amino-2-azabicyclo[2.2.1]heptane-2-carbonyl]-4-fluoro-3-methylpyrazolo[1,5-a]pyridin-2-yl}-1-(cyclopropylmethyl)-1H-pyrrolo[2,3-b]pyridin-6-yl)oxy]methyl}pyrrolidin-2-one], for which the IC50 (as a rule, the concentration that inhibits the measured activity by half) is 120 nM.

As to `Cc1c(-c2cc3ccc(C(C)(O)C(F)F)nc3n2CC2CC2)nn2cc(C(=O)N3CC4CCC3[C@@H]4N)ccc12` (mixture of isomers) [Example 381, 2-(2-{6-[(7R)-7-Amino-2-azabicyclo[2.2.1]heptane-2-carbonyl]-3-methylpyrazolo[1,5-a]pyridin-2-yl}-1-(cyclopropylmethyl)-1H-pyrrolo[2,3-b]pyridin-6-yl)-1,1-difluoropropan-2-ol], the IC50 was 20 nM.

As for `Cc1c(-c2cc3ccc(C(C)(O)C(F)(F)F)nc3n2CC2CC2)nn2cc(C(=O)N3CCC[C@@H](N)C3)ccc12` (mixture of isomers) [Example 382, 2-(2-{6-[(3R)-3-Aminopiperidine-1-carbonyl]-3-methylpyrazolo[1,5-a]pyridin-2-yl}-1-(cyclopropylmethyl)-1H-pyrrolo[2,3-b]pyridin-6-yl)-1,1,1-trifluoropropan-2-ol], the IC50 worked out at 150 nM.

On to `Cc1c(-c2cc3ccc(C(C)O)nc3n2CC2CC2)nn2cc(C(=O)N3CCC[C@@H](N)C3)ccc12` (mixture of isomers) [Example 385, 1-(2-{6-[(3R)-3-Aminopiperidine-1-carbonyl]-3-methylpyrazolo[1,5-a]pyridin-2-yl}-1-(cyclopropylmethyl)-1H-pyrrolo[2,3-b]pyridin-6-yl)ethan-1-ol], for which the IC50 was 270 nM.

`COc1cc(C(=O)N2CCC[C@@H](N)C2)cn2nc(-c3cc4cccc(C5CCN(C(=O)C6CC(O)(C(F)(F)F)C6)CC5)c4n3CC3CC3)c(C)c12` (mixture of isomers) [Example 398, (R)-(3-Aminopiperidin-1-yl)(2-(1-(cyclopropylmethyl)-7-(1-(3-hydroxy-3-(trifluoromethyl)cyclobutane-1-carbonyl)piperidin-4-yl)-1H-indol-2-yl)-4-methoxy-3-methylpyrazolo[1,5-a]pyridin-6-yl)methanone]: the IC50 is 40 nM.

Regarding `COc1cc(C(=O)N2C[C@H](N)C[C@@H](F)C2)cn2nc(-c3cc4cccc(C5CCN(C(=O)C6CC(O)(C(F)(F)F)C6)CC5)c4n3CC3CC3)c(C)c12` (mixture of isomers) [Example 399, ((3R,5R)-3-Amino-5-fluoropiperidin-1-yl)(2-(1-(cyclopropylmethyl)-7-(1-(3-hydroxy-3-(trifluoromethyl)cyclobutane-1-carbonyl)piperidin-4-yl)-1H-indol-2-yl)-4-methoxy-3-methylpyrazolo[1,5-a]pyridin-6-yl)methanone], the IC50 is 50 nM.

Consider `COc1cc(C(=O)N2CCC[C@@H](N)C2)cn2nc(-c3cc4cccc(C5CCN(C(=O)C6CCCO6)CC5)c4n3CC3CC3)c(C)c12` (mixture of isomers) [Example 400, ((R)-3-Aminopiperidin-1-yl)(2-(1-(cyclopropylmethyl)-7-(1-(tetrahydrofuran-2-carbonyl)piperidin-4-yl)-1H-indol-2-yl)-4-methoxy-3-methylpyrazolo[1,5-a]pyridin-6-yl)methanone], for which the IC50 turned out to be 660 nM.

For the molecule `Cc1c(-c2cc3cccc(C4CCN(C(=O)C5CC(O)C5)CC4)c3n2CC2CC2)nn2cc(C(=O)N3C[C@H](N)C[C@@H](F)C3)cc(F)c12` (mixture of isomers) [Example 419, ((3R,5R)-3-Amino-5-fluoropiperidin-1-yl)(2-(1-(cyclopropylmethyl)-7-(1-(3-hydroxycyclobutane-1-carbonyl)piperidin-4-yl)-1H-indol-2-yl)-4-fluoro-3-methylpyrazolo[1,5-a]pyridin-6-yl)methanone], the 50% inhibitory concentration (IC50) turned out to be 8250 nM.

Take `Cc1c(-c2cc3cccc(C4CCN(C(=O)C5CC(O)C5)CC4)c3n2CC2CC2)nn2cc(C(=O)N3CCC[C@@H](N)C3)cc(F)c12` (mixture of isomers) [Example 420, (R)-(3-Aminopiperidin-1-yl)(2-(1-(cyclopropylmethyl)-7-(1-(3-hydroxycyclobutane-1-carbonyl)piperidin-4-yl)-1H-indol-2-yl)-4-fluoro-3-methylpyrazolo[1,5-a]pyridin-6-yl)methanone]: the half-maximal inhibitory concentration (IC50) was 290 nM.

Take `Cc1c(-c2cc3cccc(C4CCN(C(=O)C5CC(O)(C(F)(F)F)C5)CC4)c3n2CC2CC2)nn2cc(C(=O)N3C[C@H](N)C[C@@H](F)C3)cc(F)c12` (mixture of isomers) [Example 421, ((3R,5R)-3-Amino-5-fluoropiperidin-1-yl)(2-(1-(cyclopropylmethyl)-7-(1-(3-hydroxy-3-(trifluoromethyl)cyclobutane-1-carbonyl)piperidin-4-yl)-1H-indol-2-yl)-4-fluoro-3-methylpyrazolo[1,5-a]pyridin-6-yl)methanone]: the concentration for half-maximal inhibition (IC50) turned out to be 80 nM.

In the case of `Cc1c(-c2cc3cccc(C4CCN(C(=O)C5CC(O)(C(F)(F)F)C5)CC4)c3n2CC2CC2)nn2cc(C(=O)N3CCC[C@@H](N)C3)cc(F)c12` (mixture of isomers) [Example 422, (R)-(3-Aminopiperidin-1-yl)(2-(1-(cyclopropylmethyl)-7-(1-(3-hydroxy-3-(trifluoromethyl)cyclobutane-1-carbonyl)piperidin-4-yl)-1H-indol-2-yl)-4-fluoro-3-methylpyrazolo[1,5-a]pyridin-6-yl)methanone], the IC50 came to 400 nM.

As to `Cc1c(-c2cc3cccc(C4CCN(C(=O)C5CC(O)(C(F)(F)F)C5)CC4)c3n2CC2CC2)nn2cc(C(=O)N3CCC[C@@H](N)C3)ccc12` (mixture of isomers) [Example 456, (R)-(3-aminopiperidin-1-yl)(2-(1-(cyclopropylmethyl)-7-(1-(3-hydroxy-3-(trifluoromethyl)cyclobutane-1-carbonyl)piperidin-4-yl)-1H-indol-2-yl)-3-methylpyrazolo[1,5-a]pyridin-6-yl)methanone], the concentration for half-maximal inhibition (IC50) was found to be 30 nM.

Regarding `Cc1c(-c2cc3cccc(C4CCN(C(=O)C5CCCCO5)CC4)c3n2CC2CC2)nn2cc(C(=O)N3C[C@H](N)C[C@@H](F)C3)ccc12` (mixture of isomers) [Example 458], the IC50 turned out to be 80 nM.

In the case of `Cc1c(-c2cc3cccc(C4CCN(C(=O)C5CCCO5)CC4)c3n2CC2CC2)nn2cc(C(=O)N3CCC[C@@H](N)C3)ccc12` (mixture of isomers) [Example 462, ((R)-3-aminopiperidin-1-yl)(2-(1-(cyclopropylmethyl)-7-(1-(tetrahydrofuran-2-carbonyl)piperidin-4-yl)-1H-indol-2-yl)-3-methylpyrazolo[1,5-a]pyridin-6-yl)methanone], the IC50 came to 30 nM.

Turning to `Cc1c(-c2cc3cccc(C4CCN(C(=O)C5CCCO5)CC4)c3n2CC2CC2)nn2cc(C(=O)N3C[C@H](N)C[C@@H](F)C3)ccc12` (mixture of isomers) [Example 463, ((3R,5R)-3-amino-5-fluoropiperidin-1-yl)(2-(1-(cyclopropylmethyl)-7-(1-(tetrahydrofuran-2-carbonyl)piperidin-4-yl)-1H-indol-2-yl)-3-methylpyrazolo[1,5-a]pyridin-6-yl)methanone], the concentration for half-maximal inhibition (IC50) is 100 nM.

`Cc1c(-c2cc3cccc(C4CCN(C(=O)C5CC(O)C5)CC4)c3n2CC2CC2)nn2cc(C(=O)N3CCC[C@@H](N)C3)ccc12` (mixture of isomers) [Example 465, (R)-(3-aminopiperidin-1-yl)(2-(1-(cyclopropylmethyl)-7-(1-(3-hydroxycyclobutane-1-carbonyl)piperidin-4-yl)-1H-indol-2-yl)-3-methylpyrazolo[1,5-a]pyridin-6-yl)methanone]: the IC50 was 130 nM.

Consider `Cc1c(-c2cc3cccc(C4CCN(C(=O)C5CC(O)C5)CC4)c3n2CC2CC2)nn2cc(C(=O)N3C[C@H](N)C[C@@H](F)C3)ccc12` (mixture of isomers) [Example 466, ((3R,5R)-3-amino-5-fluoropiperidin-1-yl)(2-(1-(cyclopropylmethyl)-7-(1-(3-hydroxycyclobutane-1-carbonyl)piperidin-4-yl)-1H-indol-2-yl)-3-methylpyrazolo[1,5-a]pyridin-6-yl)methanone], for which the IC50 turned out to be 190 nM.
